Experiments:
[1] = test system: advanced head, neck, breast and ovarian cancer; details: small group of patients with advanced head; cited from earlier work
[2] = test system: cancer cell lines B16-F0, Hs294T, LoVo, LoVo/DX, MCF-7, MV-4-11; assay: In vitro cytotoxicity tests (SRB / MTT) on cancer cell lines; type: cell-based, human and murine; details: versus salinomycin; from Table 3 IC50 data; 72 hours incubation
Method: (§1) The solvent for further dilutions was a culture medium.
(§2) The experiments were repeated at least 3 times.
(§3) After 4 hours of incubation at 37° C., 80 μL of lysis buffer was added to each well.

[3] = test system: MV-4-11 (human biphenotypic leukaemia); assay: In vitro cytotoxicity test, MTT assay, MV-4-11; type: cell-based; details: 72 hours incubation
Method: as §1, §2, §3

Compound | effect on cancer progression [1] | side effects [1] | anti-proliferative effect compared to the parent compound [2] | effect against biphenotypic leukaemia cells [3]
CC[C@@H](C(=O)[C@@H](C)[C@@H](O)[C@H](C)[C@@H]1O[C@@H]([C@@H](CC)C(=O)O)CC[C@@H]1C)[C@H]1O[C@]2(C=C[C@@H](O)[C@]3(CC[C@@](C)([C@H]4CC[C@](O)(CC)[C@H](C)O4)O3)O2)[C@H](C)C[C@@H]1C [Salinomycin] | inhibition of cancer progression | no acute side effects | – | –
CC[C@@H](C(=O)[C@@H](C)[C@@H](O)[C@H](C)[C@@H]1O[C@@H]([C@@H](CC)C(=O)O)CC[C@@H]1C)[C@H]1O[C@]2(C=C[C@@H](NC(=O)C(C)C)[C@]3(CC[C@@](C)([C@H]4CC[C@](O)(CC)[C@H](C)O4)O3)O2)[C@H](C)C[C@@H]1C [formula (10), C20-dehydroxy-C20-aminosalinomycin N-isobutyramide] | – | – | several times more potent | –
CC[C@@H](C(=O)[C@@H](C)[C@@H](O)[C@H](C)[C@@H]1O[C@@H]([C@@H](CC)C(=O)O)CC[C@@H]1C)[C@H]1O[C@]2(C=C[C@@H](NC(=O)c3ccccc3)[C@]3(CC[C@@](C)([C@H]4CC[C@](O)(CC)[C@H](C)O4)O3)O2)[C@H](C)C[C@@H]1C [formula (15), C20-dehydroxy-C20-aminosalinomycin N-benzamide] | – | – | several times more potent | –
C#CCOC(=O)N[C@@H]1C=C[C@]2(O[C@H]([C@@H](CC)C(=O)[C@@H](C)[C@@H](O)[C@H](C)[C@@H]3O[C@@H]([C@@H](CC)C(=O)O)CC[C@@H]3C)[C@@H](C)C[C@H]2C)O[C@@]12CC[C@@](C)([C@H]1CC[C@](O)(CC)[C@H](C)O1)O2 [formula (22), C20-dehydroxy-C20-aminosalinomycin N-propargylcarbamate] | – | – | tens of times more potent | –
CC[C@@H](C(=O)[C@@H](C)[C@@H](O)[C@H](C)[C@@H]1O[C@@H]([C@@H](CC)C(=O)[O-])CC[C@@H]1C)[C@H]1O[C@]2(C=C[C@@H](NC(=O)NCCCCl)[C@]3(CC[C@@](C)([C@H]4CC[C@](O)(CC)[C@H](C)O4)O3)O2)[C@H](C)C[C@@H]1C.[Na+] [formula (25), 3-chloropropylurea of C20-dehydroxy-C20-aminosalinomycin] | – | – | tens of times more potent | preferred effect
